Experimental data reported in patent publication US11998595B2, “Telomerase polypeptide vaccine for treating cancer” (Ultimovacs AS, priority 2010, dated 2024).

Experiments:
pancreas cancer patient = test: Clinical course of pancreas cancer patient; type: in vivo, human
T cells (patient PBMCs) = test: T-cell proliferation assay (3H-thymidine) of patient PBMC/T cells with hTERT peptides or transfected DC; type: cell-based, human; conditions: for response of clinical non-responders: GV1001-vaccinated; for immunological responses in clinical responders: patients responding / 7 clinical responders; for immunological responses in clinical non-responders: patients responding / 10 clinical non-responders
Procedure: FIG. 1 is a bar graph summarising hTERT T-cell responses detected in pancreas cancer patient vaccinated with DC transfected with hTERT mRNA. In samples from various time points throughout a vaccination schedule, T-cell responses against 24 overlapping hTERT 15-mer peptides were detected. Proliferation in response to peptide-loaded PBMC was measured by ^3H-thymidine incorporation. A stimulation index of >2 is considered an immune response.
Peripheral blood mononuclear cells (PBMCs) were obtained prior to the four standard vaccinations, after 5 weeks and after 12 weeks. PBMCs were also obtained before each monthly booster vaccination. The PBMCs were isolated and frozen as previously described (Kyte et al, 2005). Thawed PBMCs were stimulated once in vitro with tDCs (not with mockDCs) and cultured and then tested in T cell proliferation assays (^3H Thymidine) as previously described (Kyte et al 2006). The T cells were tested in triplicates. Irradiated tDCs and mock-transfected DC controls (mockDCs) were used or PBMC with or without hTERT peptide as APCs. Negative controls with T cells only were included.
PBMCs from various time points were stimulated with an overlapping hTERT 15-mer peptide library or a 30-mer hTERT peptide, all from ProImmune and then tested in proliferation assays as above using irradiated PBMCs as APCs as described in (Bernhardt et al 2006).
T-cell responses to a hTERT peptide library (including the polypeptides from Table 1) were determined for T-cells from 5 patients in addition to the patients reported in Examples 1 and 2. The methods were the same as previously described in Example 1 or in Bernhardt et al 2006. In brief, PBMCs from various time points during vaccination were stimulated with the overlapping hTERT peptide library prior to testing for specific T-cell responses in proliferation assays.
The proliferative T-cell responses of each patient to a series of peptides were then determined as explained in Example 1. The results are tabulated in Table 5 and are shown graphically in FIG. 14 in which the peptide designations are referenced in Table 6 (the results for peptides 726 and GV1001 are shown only for comparison).
Four patients who were clinical non-responders following a lung cancer diagnosis and a GV1001 (SEQ ID NO. 10) peptide vaccination were studied. These patients were all stage IV lung cancer patients vaccinated with GV1001. […] The proliferative T-cell responses of each patient to a series of peptides were determined in the same manner as in Example 1, at one time point. The peak response of each patient during the study period to peptide GV1001 is also shown which confirms that each patient responded immunologically to GV1001 vaccination.
Six patients who were clinical non-responders following a melanoma cancer diagnosis and a GV1001 peptide (SEQ ID NO. 10) vaccination were studied. These patients were all stage IV melanoma patients and included in the same GV1001 vaccination trial as melanoma patients P7 and P8 who were long term survivors (see Example 6). […] Five of the patients also experienced progressive disease and one patient, designated Melanoma P3, experienced some stabilization of the disease but still had short survival. The proliferative T-cell responses of each patient to a series of peptides were determined in the same manner as in Example 1, at one time point. The peak response of each patient during the study period to peptide GV1001 is also shown which confirms that each patient responded immunologically to GV1001 vaccination.

[1] = system: CD8+ T cells (patient PBMCs); test: Pentamer staining of hTERT-specific CD8+ T cells by flow cytometry; type: cell-based, human; conditions: for peptide-specific CD8+ T lymphocytes detected by pentamer: HLA-B7+ lung cancer patient in complete remission after GV1001 vaccination, up to six years (FIG. 6)
CD4+ T-cell clones = test: Peptide-specific T-cell clones from patients (HLA class II allele, peptide titration); type: cell-based, human
Text: A value above 2 is considered as a positive response.
T-cell clones specific for all of the peptides of 15- or 30-amino acids shown in Table 1 have also been obtained from patients. […] This is important in order to be able to induce strong immune response in vivo where peptide concentrations are lower.
In addition, the 15- and 30-mer peptides listed in Table 1 show reactivity in nearly all patients tested, which means they are promiscuous with respect to the HLA class II alleles on which they are presented and that they are applicable to nearly the whole population without any need for HLA-screening (see Table 2).

[2] = four stage IV lung cancer patients
[3] = patient Colon ca P1, GV1001-vaccinated, clinical responder
[4] = patient Lung ca P1, GV1001-vaccinated, clinical non-responder, one time point
[5] = patient Lung ca P2, GV1001-vaccinated, clinical non-responder, one time point
[6] = patient Lung ca P3, GV1001-vaccinated, clinical non-responder, one time point
[7] = patient Lung ca P4, GV1001-vaccinated, clinical non-responder, one time point
[8] = patient Lung ca P5, GV1001-vaccinated, clinical responder
[9] = patient Lung ca P6, DC/hTERT mRNA-vaccinated, clinical responder, high background
[10] = patient Melanoma P1, GV1001-vaccinated, clinical non-responder, one time point
[11] = patient Melanoma P2, GV1001-vaccinated, clinical non-responder, one time point
[12] = patient Melanoma P3, GV1001-vaccinated, clinical non-responder, one time point
[13] = patient Melanoma P4, GV1001-vaccinated, clinical non-responder, one time point
[14] = patient Melanoma P5, GV1001-vaccinated, clinical non-responder, one time point
[15] = patient Melanoma P6, GV1001-vaccinated, clinical non-responder, one time point
[16] = patient Melanoma P7, GV1001-vaccinated, clinical responder
[17] = patient Melanoma P8, GV1001-vaccinated, clinical responder
[18] = patient Melanoma P9, non-vaccinated, spontaneous response
[19] = patient Pancreas ca P1, DC/hTERT mRNA-vaccinated, clinical responder, high background
[20] = HLA class II allele DR*04, 3 patients, malignant melanoma

Compound: Nc1ccn([C@@H]2O[C@H](CO)[C@@H](O)C2(F)F)c(=O)n1 [gemcitabine]
- adverse effects (pancreas cancer patient; after 5 months): suspended due to adverse effects
- Clinical response (pancreas cancer patient; before DC vaccination): disease stabilization

Compound: AERLTSRVKALFSVL (listed as Homo sapiens) [SEQ ID NO. 9]
- response of clinical non-responders (T cells (patient PBMCs); [2]): very low or no response
- proliferative T-cell response (SI) (T cells (patient PBMCs); [3]): 13.9
- proliferative T-cell response (SI) (T cells (patient PBMCs); [4]): 0.8
- proliferative T-cell response (SI) (T cells (patient PBMCs); [5]): 0.6
- proliferative T-cell response (SI) (T cells (patient PBMCs); [6]): 0.8
- proliferative T-cell response (SI) (T cells (patient PBMCs); [7]): 0.7
- proliferative T-cell response (SI) (T cells (patient PBMCs); [8]): 1.2
- proliferative T-cell response (SI) (T cells (patient PBMCs); [9]): 0.7
- proliferative T-cell response (SI) (T cells (patient PBMCs); [10]): 0.8
- proliferative T-cell response (SI) (T cells (patient PBMCs); [11]): 0.6
- proliferative T-cell response (SI) (T cells (patient PBMCs); [12]): 0.5
- proliferative T-cell response (SI) (T cells (patient PBMCs); [13]): 0.8
- proliferative T-cell response (SI) (T cells (patient PBMCs); [14]): 0.9
- proliferative T-cell response (SI) (T cells (patient PBMCs); [15]): 1.3
- proliferative T-cell response (SI) (T cells (patient PBMCs); [16]): 3.2
- proliferative T-cell response (SI) (T cells (patient PBMCs); [17]): 1
- proliferative T-cell response (SI) (T cells (patient PBMCs); [18]): 5.9
- proliferative T-cell response (SI) (T cells (patient PBMCs); [19]): 1
- immunological responses in clinical responders (T cells (patient PBMCs)): 3/7
- immunological responses in clinical non-responders (T cells (patient PBMCs)): 0/10
- response of clinical non-responders (T cells (patient PBMCs); six stage IV melanoma patients): very low or no response
- patients with CTL responses shown by pentamer analysis ([1]; patients of Examples 1 to 8): 3

Compound: PGLLGASVLGLDDIH (listed as Homo sapiens) [SEQ ID NO. 55]
- proliferative T-cell response (detected or not) (T cells (patient PBMCs); pancreas cancer patient vaccinated with DC/hTERT mRNA): recognized by T cells

Compound: RLTSRVKALFSVLNY (listed as Homo sapiens) [SEQ ID NO. 8]
- response of clinical non-responders (T cells (patient PBMCs); [2]): very low or no response
- proliferative T-cell response (SI) (T cells (patient PBMCs); [3]): 2.6
- proliferative T-cell response (SI) (T cells (patient PBMCs); [4]): 1.2
- proliferative T-cell response (SI) (T cells (patient PBMCs); [5]): 0.9
- proliferative T-cell response (SI) (T cells (patient PBMCs); [6]): 1.1
- proliferative T-cell response (SI) (T cells (patient PBMCs); [7]): 1.1
- proliferative T-cell response (SI) (T cells (patient PBMCs); [8]): 0.8
- proliferative T-cell response (SI) (T cells (patient PBMCs); [9]): 2.1
- proliferative T-cell response (SI) (T cells (patient PBMCs); [10]): 0.9
- proliferative T-cell response (SI) (T cells (patient PBMCs); [11]): 0.8
- proliferative T-cell response (SI) (T cells (patient PBMCs); [12]): 0.6
- proliferative T-cell response (SI) (T cells (patient PBMCs); [13]): 1.1
- proliferative T-cell response (SI) (T cells (patient PBMCs); [14]): 7.1
- proliferative T-cell response (SI) (T cells (patient PBMCs); [15]): 0.8
- proliferative T-cell response (SI) (T cells (patient PBMCs); [16]): 4.8
- proliferative T-cell response (SI) (T cells (patient PBMCs); [17]): 6.3
- proliferative T-cell response (SI) (T cells (patient PBMCs); [18]): 4.2
- proliferative T-cell response (SI) (T cells (patient PBMCs); [19]): 1.3
- response of clinical non-responders (T cells (patient PBMCs); six stage IV melanoma patients): very low or no response
- Specific clones (CD4+ T-cell clones; [20]): 3

Compound: RPALLTSRL (listed as Homo sapiens) [SEQ ID NO. 5]
- peptide-specific CD8+ T lymphocytes detected by pentamer [1]: stable CD8+ T cell population

Compound: RPGLLGASVL (listed as Homo sapiens) [SEQ ID NO. 25]
- peptide-specific CD8+ T lymphocytes detected by pentamer [1]: second minor CTL population

Compound: RTFVLRVRAQDPPPE (listed as Homo sapiens) [SEQ ID NO. 7]
- response of clinical non-responders (T cells (patient PBMCs); [2]): very low or no response
- proliferative T-cell response (SI) (T cells (patient PBMCs); [3]): 20.6
- proliferative T-cell response (SI) (T cells (patient PBMCs); [4]): 1.3
- proliferative T-cell response (SI) (T cells (patient PBMCs); [5]): 1
- proliferative T-cell response (SI) (T cells (patient PBMCs); [6]): 1.2
- proliferative T-cell response (SI) (T cells (patient PBMCs); [7]): 0.4
- proliferative T-cell response (SI) (T cells (patient PBMCs); [8]): 1.1
- proliferative T-cell response (SI) (T cells (patient PBMCs); [9]): 0.8
- proliferative T-cell response (SI) (T cells (patient PBMCs); [10]): 0.9
- proliferative T-cell response (SI) (T cells (patient PBMCs); [11]): 1
- proliferative T-cell response (SI) (T cells (patient PBMCs); [12]): 0.7
- proliferative T-cell response (SI) (T cells (patient PBMCs); [13]): 1
- proliferative T-cell response (SI) (T cells (patient PBMCs); [14]): 1.2
- proliferative T-cell response (SI) (T cells (patient PBMCs); [15]): 4.8
- proliferative T-cell response (SI) (T cells (patient PBMCs); [16]): 4.9
- proliferative T-cell response (SI) (T cells (patient PBMCs); [17]): 2.8
- proliferative T-cell response (SI) (T cells (patient PBMCs); [18]): 5.7
- proliferative T-cell response (SI) (T cells (patient PBMCs); [19]): 2.5
- immunological responses in clinical responders (T cells (patient PBMCs)): 5/7
- immunological responses in clinical non-responders (T cells (patient PBMCs)): 1/10
- response of clinical non-responders (T cells (patient PBMCs); six stage IV melanoma patients): very low or no response

Compound: SVLNYERARRPGLLG (listed as Homo sapiens) [SEQ ID NO. 2]
- Specific clones (CD4+ T-cell clones; HLA class II allele DR*01, 2 patients, malignant melanoma): T-cell lines
- Specific clones (CD4+ T-cell clones; [20]): 3
- Specific clones (CD4+ T-cell clones; HLA class II allele DR*08, 2 patients, malignant melanoma and lung cancer): >85
